Experimental findings from ChEMBL document CHEMBL3045223, “Synthesis, nematicidal and antimicrobial properties of Bis-[4-methoxy-3-[3-(4-fluorophenyl)-6-(4-methylphenyl)-2(aryl)-tetrahydro-2H-pyrazolo[3,4-d]thiazol-5-yl]phenyl]methanes” (2009) are described below.

Converted amounts (≈) assume the structure as drawn.

Holding throughout (assay type): functional
Test [1] has as its system Staphylococcus aureus. The test is described as follows: Antibacterial activity against Staphylococcus aureus MTCC 96 assessed as inhibition zones at 100 ug/disc at 37 degC for 24 hr. Particulars: MTCC 96, 24 h, read-out: IZ.
Test [2] has as its system Chromobacterium violaceum. The test is described as follows: Antibacterial activity against Chromobacterium violaceum MTCC 2656 assessed as inhibition zones at 100 ug/disk at 37 degC for 24 hr. Particulars: MTCC 2656, 24 h, read-out: IZ.
For test [3], the system named is Staphylococcus aureus. Description: Antibacterial activity against Staphylococcus aureus MTCC 96 assessed as growth arrest at 37 degC for 24 hr. Particulars: MTCC 96, 24 h.
Test [4] relates to Klebsiella aerogenes. The test is described as follows: Antibacterial activity against Enterobacter aerogenes MTCC 39 assessed as inhibition zones at 100 ug/disk at 37 degC for 24 hr. The following applies: MTCC 39, 24 h, read-out: IZ.
The subject of test [5] is Pseudomonas aeruginosa. Description: Antibacterial activity against Pseudomonas aeruginosa MTCC 741 assessed as inhibition zones at 100 ug/disk at 37 degC for 24 hr. Particulars: MTCC 741, 24 h, read-out: IZ.
The subject of test [6] is Lysinibacillus sphaericus. Description: Antibacterial activity against Lysinibacillus sphaericus MTCC 11 assessed as inhibition zones at 100 ug/disk at 37 degC for 24 hr. The following applies: MTCC 11, 24 h, read-out: IZ.
Test [7] concerns Chromobacterium violaceum. Description: Antibacterial activity against Chromobacterium violaceum MTCC 2656 assessed as growth arrest at 37 degC for 24 hr. The following applies: MTCC 2656, 24 h.
The test system of test [8] is Pseudomonas aeruginosa. Description: Antibacterial activity against Pseudomonas aeruginosa MTCC 741 assessed as growth arrest at 37 degC for 24 hr. The following applies: MTCC 741, 24 h.
For test [9], the system named is Lysinibacillus sphaericus. Description: Antibacterial activity against Lysinibacillus sphaericus MTCC 11 assessed as growth arrest at 37 degC for 24 hr. The following applies: MTCC 11, 24 h.
Test [10] concerns Klebsiella aerogenes. Description: Antibacterial activity against Enterobacter aerogenes MTCC 39 assessed as growth arrest at 37 degC for 24 hr. Particulars: MTCC 39, 24 h.
In test [11] the test system is Bacillus subtilis. The test is described as follows: Antibacterial activity against Bacillus subtilis MTCC 441 assessed as inhibition zones at 100 ug/disk at 37 degC for 24 hr. The following applies: MTCC 441, 24 h, read-out: IZ.
The test system of test [12] is Bacillus subtilis. The test is described as follows: Antibacterial activity against Bacillus subtilis MTCC 441 assessed as growth arrest at 37 degC for 24 hr. Particulars: MTCC 441, 24 h.

For `CN[C@@H]1[C@H](O[C@H]2[C@H](O[C@H]3[C@H](O)[C@@H](O)[C@H](N=C(N)N)[C@@H](O)[C@@H]3N=C(N)N)O[C@@H](C)[C@]2(O)C=O)O[C@@H](CO)[C@H](O)[C@H]1O` [STREPTOMYCIN], the zone of inhibition at 100 µg/disc in the test on Staphylococcus aureus [1] amounted to 41 mm; in test [2] it was 20 mm; in the test on Klebsiella aerogenes [4], 25 mm; in the test with Pseudomonas aeruginosa [5], 15 mm; in test [6], 20 mm; with Bacillus subtilis [11], 30 mm. The MBC in the test on Staphylococcus aureus [3] came to 12.5 µg/mL (≈ 21.5 µM); in [7], 6.25 µg/mL (≈ 10.7 µM); in the test with Pseudomonas aeruginosa [8] it was 6.25 µg/mL (≈ 10.7 µM); in test [9], 25 µg/mL (≈ 43 µM); with Klebsiella aerogenes [10], 6.25 µg/mL (≈ 10.7 µM); in the test on Bacillus subtilis [12], 12.5 µg/mL (≈ 21.5 µM). For the same compound, the MIC was found to be 6.25 µg/mL (≈ 10.7 µM) in the test with Staphylococcus aureus [3]; 3.12 µg/mL (≈ 5.36 µM) in [7]; 1.56 µg/mL (≈ 2.68 µM) with Pseudomonas aeruginosa [8]; 6.25 µg/mL (≈ 10.7 µM) in test [9]; 1.56 µg/mL (≈ 2.68 µM) in the test with Klebsiella aerogenes [10]; 6.25 µg/mL (≈ 10.7 µM) in the test on Bacillus subtilis [12].

As for `CC1(C)S[C@@H]2[C@H](NC(=O)Cc3ccccc3)C(=O)N2[C@H]1C(=O)O` [PENICILLIN G], the zone of inhibition at 100 µg/disc in the test with Staphylococcus aureus [1] is 40 mm; in test [2] it was 25 mm; with Klebsiella aerogenes [4] it was 30 mm; in the test on Pseudomonas aeruginosa [5], 25 mm; in test [6], 28 mm; in the test with Bacillus subtilis [11], 25 mm. Also, the MBC in the test on Staphylococcus aureus [3] was 6.25 µg/mL (≈ 18.7 µM); in test [7] it was 12.5 µg/mL (≈ 37.4 µM); with Pseudomonas aeruginosa [8], 12.5 µg/mL (≈ 37.4 µM); in test [9] it was 25 µg/mL (≈ 74.8 µM); in the test with Klebsiella aerogenes [10] it was 12.5 µg/mL (≈ 37.4 µM); in the test on Bacillus subtilis [12] it was 6.25 µg/mL (≈ 18.7 µM). The MIC in the test with Staphylococcus aureus [3] worked out at 1.56 µg/mL (≈ 4.67 µM); in test [7], 12.5 µg/mL (≈ 37.4 µM); in the test with Pseudomonas aeruginosa [8] it was 6.25 µg/mL (≈ 18.7 µM); in test [9] it was 3.12 µg/mL (≈ 9.33 µM); in the test with Klebsiella aerogenes [10], 6.25 µg/mL (≈ 18.7 µM); in the test with Bacillus subtilis [12], 1.56 µg/mL (≈ 4.67 µM).

What is called MBC is the lowest tested concentration that kills the bacteria rather than only halting them. What is called MIC is the lowest concentration that inhibits growth of the organism.
